Test results reported in patent EP0519427A2, “N-substituted-3-iodopropiolamide, production and use thereof” (priority 1991, dated 1992).

Experiments:
Format in all cases: cell-based
[1] = test system: Bacillus subtilis IFO-13719; experiment: Antibacterial and antifungal activity, paper disc method; conditions: paper disc d=8 mm dipped in 1,000 µg/ml solution, TSA medium; for zone of inhibition at 1000 µg/mL: Bacillus subtilis, IFO13719, read-out: diameter of the growth inhibition circle, Bac.(IFO-13719)
Protocol: (§1) Antibacterial and antifungal activity tests for various bacteria and fungi were conducted. The tests were carried out by the conventional paper disc method. That is, a paper disc (d=8 mm) was dipped in aqueous or methanol solution of the compound of the present invention (concentration : 1,000 µg/ml), then dried and used.
(§2) As bacteria to be tested, • ① Staphylococcus aureus IFO-12732 [hereinafter abbreviated to Sta.] • ② Bacillus subtilis IFO-13719 [Bac.] • ③ Escherichia coli IFO-3301 [Esc.] were used. As yeast to be tested, • ④ Saccharomyces cerevisiae IFO-0210 [Sac.] • ⑤ Candida albicans IFO-0583 [Can.] were used. As fungi to be tested, • ⑥ Aspergillus niger IFO-4407 [Asp.] • ⑦ Penicillium citrinum IFO-7784 [Pen.] • ⑧ Tyromyces palustris IFO-30339 [Tyr.] • ⑨ Coriolus versicolor IFO-30340 [Cor.] were used. Among the above fungi, Tyr. and Cor. are wood rot fungi.
(§3) As the test media, agar media shown below were used. That is, TSA (Trypticase Soy Agar) medium was used for Sta., Bac. and Esc.; YNB (Yeast Nitrogen Base) agar medium was used for Sac. and Can.; SDA (Sabouraud Dextrose Agar) medium was used for Asp. and Pen.; and PDA (Potato Dextrose Agar) medium was used for Try. and Cor.
(§4) The determination of antibacterial and antifungal effectiveness was carried out by measuring the diameter of the growth inhibition circle generated on the circumference of the paper disc. The indication of effectiveness is given as follows: -: no growth inhibition circle was observed. +: diameter of the growth inhibition circle was 9 - 20 mm ++: diameter of the growth inhibition circle was 21 - 40 mm +++: diameter of the growth inhibition circle was 41 mm or more

[2] = test system: Coriolus versicolor IFO-30340; experiment: as above; conditions: Trametes versicolor, IFO30340; paper disc d=8 mm dipped in 1,000 µg/ml solution; PDA medium; read-out: diameter of the growth inhibition circle, Cor.(IFO-30340)
Protocol: as §1, §2, §3, §4

[3] = test system: Penicillium citrinum IFO-7784; experiment: as above; conditions: IFO7784, paper disc d=8 mm dipped in 1,000 µg/ml solution, SDA medium, read-out: diameter of the growth inhibition circle, Pen.(IFO-7784)
Protocol: as §1, §2, §3, §4

[4] = test system: Staphylococcus aureus IFO-12732; experiment: as above; conditions: IFO12732, paper disc d=8 mm dipped in 1,000 µg/ml solution, TSA medium, read-out: diameter of the growth inhibition circle, Sta.(IFO-12732)
Protocol: as §1, §2, §3, §4

[5] = test system: Tyromyces palustris IFO-30339; experiment: as above; conditions: paper disc d=8 mm dipped in 1,000 µg/ml solution; PDA medium; read-out: diameter of the growth inhibition circle, Tyr.(IFO-30339)
Protocol: as §1, §2, §3, §4

[6] = test system: Coriolus versicolor(L. ex Fr.) Quélet, FFPRI 1030; experiment: Preserving activity for wood preservatives (weight loss of treated wood); conditions: beech sapwood specimens, 110 ± 10 g/m² preservative applied (0.5% xylene solution per table note), eight weeks at 26 ± 2 °C; lower = higher preserving activity
Protocol: (§5) This test was conducted according to Specification No.1 of Japan Wood Preserving Association, enacted in 1979, amended in 1989 and titled "Test methods of preserving activity for wood preservatives used in the coating, spraying and dipping treatment".
(§6) • ① Tyromyces palustris (Ber. et Curt.) Murr., FFPRI 0507 --"Ouzuratake" • ② Coriolus versicolor(L. ex Fr.) Quélet, FFPRI 1030 --"Kawaratake"
(§7) These two fungi are classified as wood rot fungi.
(§8) Culture media comprised culture jars (cylindrical jars of bottom diameter 8-9 cm, opening diameter 6-7 cm and height 15-18 cm), in which quartz sand of 250 g (the size of which corresponds to 20-30 mesh) was put first, and then the solution of 70 ml containing 2.0 % malt extracts and 1.0 % peptone was introduced, over which chips of the beech or other broadleaf tree were spread at about 2 mm thickness, and then sterilized at 120 °C for 30 minutes in the wet heated sterilizer.
(§9) Fungi were cultured at 26 ± 2 °C with shaking using the culture solution of 2.0 % malt extracts and 1.0 % peptone. After sufficient breeding was obtained, the fungi solution of about 3 ml was spread all over the culture medium, and then the fungi were cultured at 26 ± 2 °C with the relative humidity of over 70 %. After 10-15 days when the fungi layer sufficiently covered the culture medium, the fungi were served for the tests.
(§10) Wood specimens were the sapwood of intact cedar and beech, the dimension of which was 5 mm thick, 20 mm wide and 40 mm long. The grain face was of 20 mm width and 40 mm length. The side faces were treated with cold-setting epoxy resin.
(§11) The antimicrobial operation was performed with specifying types of fungi for corresponding type of trees. The combinations were as follows: Cedar----Tyromyces palustris ("Ouzuratake") Beech----Coriolus versicolor ("Kawaratake")
(§12) The test specimens were of two types, treated and untreated specimens, respectively.
(§13) The treated specimens referred to the wood specimens coated by brushing, spraying or dipping with wood preservatives. The amount of applied preservatives was 110 ± 10 g/m².
(§14) The amount of applied preservatives for each test specimen was calculated by the following equation:
(§15) The amount of applied preservatives (g/m²)=(W₁-W₂)/A wherein W₁ : weight of the test specimen after absorption(g), W₂ : weight of the test specimen before absorption(g) and A: surface area of test specimen except both butt surfaces (m²)
(§16) 2-7-1 The test specimens prepared in the previous section were dried at 60 ± 2 °C with a recirculating dryer for 48 hours, and were allowed to stand in a desiccator for about 30 minutes, and then the weight (W₃) was measured to an accuracy of 0.01 g.
(§17) 2-7-2 Three of each treated and untreated specimens were assembled in the Teflon casing. After sterilizing, the two assemblies were put on their 40 × 5 mm face on the fungi layer in the separate jar. They were kept at 26 ± 2 °C under the relative humidity of over 70 % for eight weeks.
(§18) 2-7-3 After the eight weeks had elapsed, the test specimens were taken out, and mycelia and other attachments of them were removed neatly. After air-drying for 24 hours, the test specimens were dried at 60 ± 2 °C in a recirculating dryer for 48 hours, and were allowed to stand in a desiccator for about 30 minutes, and then the weight (W₄) was measured to an accuracy of 0.01 g.
(§19) The test results were presented by the ratio of average weight loss of test specimens due to antimicrobial operation. The standard deviation and coefficient of variation were also determined. The ratio of weight loss for each test specimen was calculated by the following equation, and its average was also determined: The ratio of weight loss(%) = (W₃ - W₄) / W₃ × 100 [formula] . Lower value of the ratio of weight loss corresponds to higher wood preserving activity. […]

[7] = test system: Tyromyces palustris (Ber. et Curt.) Murr., FFPRI 0507; experiment: as above; conditions: cedar sapwood specimens, 110 ± 10 g/m² preservative applied (0.5% xylene solution per table note), eight weeks at 26 ± 2 °C; lower = higher preserving activity
Protocol: as §5, §6, §7, §8, §9, §10, §11, §12, §13, §14, §15, §16, §17, §18, §19

| SMILES | zone of inhibition at 1000 µg/mL [1] [mm] | zone of inhibition at 1000 µg/mL [2] [mm] | zone of inhibition at 1000 µg/mL [3] [mm] | zone of inhibition at 1000 µg/mL [4] [mm] | zone of inhibition at 1000 µg/mL [5] [mm] | Ratio of weight loss (%), C. versicolor [6] [%] | Ratio of weight loss (%), T. palustris [7] [%] | diameter of the growth inhibition circle, Bac.(IFO-13719) [1] |
| --- | --- | --- | --- | --- | --- | --- | --- | --- |
| CCCCCCCNC(=O)C#CI [Example 9, N-(n-Heptyl)-3-iodopropiolamide] | 9 to 20 | > 41 | > 41 | 9 to 20 | > 41 | 12.0 | 3.3 |  |
| CC(C)CNC(=O)C#CI [Example 6, N-Isobutyl-3-iodopropiolamide] | 21 to 40 | 21 to 40 | 21 to 40 | 21 to 40 | > 41 | 1.5 | 0.0 |  |
| CCCCCCCCCNC(=O)C#CI [Example 11, N-(n-Nonyl)-3-iodopropiolamide] |  | > 41 | 21 to 40 | 9 to 20 | 21 to 40 | 14.2 | 5.8 | - |
| CCCCCNC(=O)C#CI [Example 7, N-(n-Pentyl)-3-iodopropiolamide] | 9 to 20 | > 41 | > 41 | 21 to 40 | > 41 | 3.1 | 2.2 |  |
| CCCCCCNC(=O)C#CI [Example 8, N-(n-Hexyl)-3-iodopropiolamide] | 9 to 20 | > 41 | > 41 | 21 to 40 | > 41 | 1.7 | 1.3 |  |
| CCCCNC(=O)C#CI [Example 4, N-(n-Butyl)-3-iodopropiolamide] | 9 to 20 | > 41 | > 41 | 21 to 40 | > 41 | 1.6 | 0.0 |  |
| CCCCCCCCCCNC(=O)C#CI [Example 2, N-(n-Decyl)-3-iodopropiolamide] | 9 to 20 | 21 to 40 | 9 to 20 | 9 to 20 | 9 to 20 | 15.9 | 0.2 |  |
| CCCCCCCCNC(=O)C#CI [Example 10, N-(n-Octyl)-3-iodopropiolamide] |  | > 41 | 21 to 40 | 9 to 20 | 21 to 40 | 8.4 | 5.0 | - |
| CCC(C)NC(=O)C#CI (stereo not shown) [Example 5, N-(sec-Butyl)-3-iodopropiolamide] | 9 to 20 | > 41 | > 41 | 21 to 40 | > 41 | 7.2 | 2.5 |  |
| CC(C)(C)NC(=O)C#CI [Example 1, N-(tert-Butyl)-3-iodopropiolamide] | 9 to 20 | > 41 | > 41 | 9 to 20 | > 41 | 11.9 | 2.4 |  |
